Assay type in all cases: in vivo
Assay [1] deals with Italian ryegrass (Lolium multiflorum). In words: (3) Herbicidal effect test, pot, spray at 2.8 to 3.2 leaf stage. Particulars: 7th day after spraying. An excerpt: (§1) [formula] • X: growth inhibition rate when treated with α (g/ha) of compound A, • Y: growth inhibition rate when treated with β (g/ha) of compound B, • E: growth inhibition rate expected when treated with α (g/ha) of compound A and β (g/ha) of compound B (expected value).
Upland soil was put in a 1/1,000,000 hectare pot, and seeds of Italian ryegrass (Lolium multiflorum) were sown. When the Italian ryegrass reached 2.8 to 3.2 leaf stage, a water-based suspension containing tiafenacil as the active ingredient, prepared by a conventional method for preparing a water-based suspension, and an emulsifiable concentrate containing S-metolachlor as the active ingredient (tradename: Dual Gold, manufactured by Syngenta), were diluted with water (in an amount corresponding to 200 liter per hectare) containing 0.5 vol % of an agricultural spreader (tradename: Destiny HC, manufactured by Winfield Solutions, LLC.) and sprayed by a small spray gun (model: W-101-132G, manufactured by ANEST IWATA Corporation). […] Further, the expected value of the growth inhibition rate (%) was calculated in accordance with the Colby's formula described in the above (1) herbicidal effect test, and the results are also shown in Table 3.

Assay [2] has the same test system. As to the kind of experiment: (1) Herbicidal effect test, pot, spray at 2.3 to 3.0 leaf stage. Particulars: 6th day after spraying. Here is the method:
Upland soil was put in a 1/1,000,000 hectare pot, and seeds of Italian ryegrass (Lolium multiflorum) were sown. When the Italian ryegrass reached 2.3 to 3.0 leaf stage, a water-based suspension containing tiafenacil as the active ingredient, prepared by a conventional method for preparing a water-based suspension, and an emulsifiable concentrate containing S-metolachlor as the active ingredient (tradename: Dual Gold, manufactured by Syngenta), were diluted with water (in an amount corresponding to 200 liter per hectare) containing 0.5 vol % of an agricultural spreader (tradename: Destiny HC, manufactured by Winfield Solutions, LLC.) and sprayed by a small spray gun (model: W-101-132G, manufactured by ANEST IWATA Corporation). On the 6th day after spraying, the state of growth of the Italian ryegrass was visually observed, and the growth inhibition rate (%) was obtained based on the following standards and the results are shown in Table 1.
Further, the expected value of the growth inhibition rate (%) was calculated in accordance with the following Colby's formula (S. R. Colby, “Weeds”, vol. 15 ([…]), p. 20-22) and the results are also shown in Table 1.
as §1
That is, when the growth inhibition rate of the composition of the present invention is higher than E (expected value of growth inhibition rate) calculated by the above formula, the combination can be regarded as having a synergistic effect.

For assay [3], the system named is forage corn (cultivar: SNOW DENT OTOHA). As to the kind of experiment: (20) Plant growth promotion effect test (corn), Italian ryegrass sown. The note with it: 33rd day after the sowing, above-ground part. Here is the method: Upland soil was put in a 1/1,000,000 hectare pot, and seeds of Italian ryegrass (Lolium multiflorum) were sown. When the Italian ryegrass reached 2.7 to 3.0 leaf stage, a water-based suspension containing tiafenacil as the active ingredient, prepared by a conventional method for preparing a water-based suspension, and an emulsifiable concentrate containing dimethenamid-P as the active ingredient (tradename: Fieldstar P emulsifiable concentrate, manufactured by BASF) were diluted with water (in an amount corresponding to 200 liter per hectare) containing 0.5 vol % of an agricultural spreader (tradename: Destiny HC, manufactured by Winfield Solutions, LLC.) and sprayed by a small spray gun (model: W-101-132G, manufactured by ANEST IWATA Corporation). Seeds of forage corn (cultivar: SNOW DENT OTOHA, manufactured by SNOW BRAND SEED Co., Ltd.) were sown in the pot after spraying. On the 33rd day after the sowing, the above-ground part of the forage corn was reaped, and its weight was measured to obtain the raw weight.

For assay [4], the system named is Italian ryegrass (Lolium multiflorum). In words: (4) Herbicidal effect test, pot, spray at 2.5 to 3.0 leaf stage. The note with it: 7th day after spraying.
Excerpt: as §1
Upland soil was put in a 1/1,000,000 hectare pot, and seeds of Italian ryegrass (Lolium multiflorum) were sown. When the Italian ryegrass reached 2.5 to 3.0 leaf stage, a water-based suspension containing tiafenacil as the active ingredient, prepared by a conventional method for preparing a water-based suspension, and a wettable powder containing metribuzin as the active ingredient (tradename: SENCOR wettable powder, manufactured by Bayer Crop Science) were diluted with water (in an amount corresponding to 200 liter per hectare) containing 0.5 vol % of an agricultural spreader (tradename: Destiny HC, manufactured by Winfield Solutions, LLC.) and sprayed by a small spray gun (model: W-101-132G, manufactured by ANEST IWATA Corporation).
On the 7th day after spraying, the state of growth of the Italian ryegrass was visually observed, and the growth inhibition rate (%) was obtained in accordance with the evaluation standards described in the above (1) herbicidal effect test, and the results are shown in Table 4. Further, the expected value of the growth inhibition rate (%) was calculated in accordance with the Colby's formula described in the above (1) herbicidal effect test, and the results are also shown in Table 4.

In assay [5] the test system is wheat (cultivar: Norin 61). In words: (22) Plant growth promotion effect test (wheat), Italian ryegrass sown. The note with it: 21st day after the sowing, above-ground part. On the procedure:
Upland soil was put in a 1/1,000,000 hectare pot, and seeds of Italian ryegrass (Lolium multiflorum) were sown. When the Italian ryegrass reached 2.5 to 2.8 leaf stage, a water-based suspension containing tiafenacil as the active ingredient, prepared by a conventional method for preparing a water-based suspension, and a wettable powder containing tri-allate as the active ingredient, prepared by a conventional method for preparing a wettable powder, were diluted with water (in an amount corresponding to 200 liter per hectare) containing 0.5 vol % of an agricultural spreader (tradename: Destiny HC, manufactured by Winfield Solutions, LLC.) and sprayed by a small spray gun (model: W-101-132G, manufactured by ANEST IWATA Corporation). Seeds of wheat (cultivar: Norin 61, manufactured by Asahi Noen Seed Co., Ltd.) were sown in the pot after spraying. On the 21st day after the sowing, the above-ground part of the wheat was reaped, and its weight was measured to obtain the raw weight.

Data on five compounds can be found in US20250380696A1, “METHOD FOR CONTROLLING UNDESIRED PLANTS AND PROMOTING GROWTH OF USEFUL PLANTS” (ISHIHARA SANGYO KAISHA, LTD., priority 2022, published 2025).

Consider `CCc1cccc(C)c1N(C(=O)CCl)[C@@H](C)COC` [S-metolachlor], for which the “Growth inhibition rate (%) Measured value” came to 0% in assay [1] (Dose 15.6 g/ha); 0% in assay [2] (Dose 125 g/ha); 1% in assay [2] (Dose 250 g/ha); 3% in assay [2] (Dose 375 g/ha); 4% in assay [2] (Dose 750 g/ha); 5% in assay [2] (Dose 1500 g/ha). For the same compound, the “Growth inhibition rate (%) Measured value” in assay [2] (Dose 3000 g/ha) amounted to 5%.
Turning to `COC[C@H](C)N(C(=O)CCl)c1c(C)csc1C` [dimethenamid-P], the “Raw weight (g) of forage corn” value in assay [3] (Dose 60 g/ha) is 9.8 g; in assay [3] (Dose 375 g/ha) it was 12.5 g; in assay [3] (Dose 750 g/ha), 8.0 g.
The term inhibition denotes the relative decrease from the control value, in per cent. As to `CSc1nnc(C(C)(C)C)c(=O)n1N` [metribuzin], in assay [4] (Lolium multiflorum, Dose 9.38 g/ha, read-out: Growth inhibition rate (%) Measured value), the inhibition at 9.38 g/ha worked out at 0%. For the same compound, in assay [4] (Lolium multiflorum, Dose 275 g/ha, read-out: Growth inhibition rate (%) Measured value), the inhibition at 275 g/ha worked out at 45%. Further, the inhibition at 550 g/ha in assay [4] (Lolium multiflorum, Dose 550 g/ha, read-out: Growth inhibition rate (%) Measured value) turned out to be 57%. Besides, in assay [4] (Lolium multiflorum, Dose 1100 g/ha, read-out: Growth inhibition rate (%) Measured value), the inhibition at 1100 g/ha was determined as 88%.
For the compound `COC(=O)CCNC(=O)C(C)Sc1cc(-n2c(=O)cc(C(F)(F)F)n(C)c2=O)c(F)cc1Cl` (stereo not drawn) [tiafenacil], in assay [5] (Dose 3 g/ha), the “Raw weight (g) of wheat” value worked out at 2.2 g. The “Raw weight (g) of forage corn” value in assay [3] (Dose 6.25 g/ha) was 12.1 g. The “Growth inhibition rate (%) Measured value” in assay [1] (Dose 12.5 g/ha) worked out at 53%; in assay [4] (Dose 6.25 g/ha) it was 30%; in assay [2] (Dose 12.5 g/ha), 75%; in assay [2] (Dose 25 g/ha) it was 83%.
For the compound `CC(C)N(C(=O)SCC(Cl)=C(Cl)Cl)C(C)C` [tri-allate], the “Raw weight (g) of wheat” value in assay [5] (Dose 200 g/ha) stood at 2.3 g.
